Assay results as given in patent US11147801B2, “Methods of use for trisubstituted benzotriazole derivatives as dihydroorotate oxygenase inhibitors” (Aurigene Discovery Technologies Limited, priority 2017, dated 2021).

Assays:
DHODH = DHODH (Homo sapiens (Human), UniProt Q02127); experiment: DHODH activity assay (coupled enzyme assay, DCIP reduction); format: biochemical; settings: read-out: DHODH inhibition activity, IC50 group
Description: The DHODH activity assay is a coupled enzyme assay in which oxidation of DHO and subsequent reduction of ubiquinone are stoichiometrically equivalent to the reduction of DCIP ([…]). The reduction of DCIP is accompanied by a loss of absorbance at 610 nm.
Buffer Preparation: 50 mM tris HCl, 150 mM KCl, and pH 8.0, 0.8% triton.
L-Dihydroorotic acid stock solution of 20 mM in buffer.
2, 6-Dichloroindophenol Sodium salt hydrate stock solution of 20 mM in buffer.
Decylubiquinone stock solution of 20 mM in buffer.
5 μL of Dimethyl sulfoxide or a compound of formula (I) in DMSO solution was added to the wells of a 96 well plate. Compounds of formula (I) were measured at 10 μM.
Protein along with buffer was added, so that the total volume including the DMSO was 87 μL. Compound and protein were incubated for half an hour at room temperature after mixing. 5 μL of 20 mM solution of L-Dihydroorotic acid, 5 μL of 2 mM solution of Decylubiquinone and 3 μL of 2 mM solution of 2, 6-Dichloroindophenol sodium salt hydrate were added to the above solution (total assay volume 100 μL). The mixture was stirred for 2 min and absorbance was recorded at every 10 min at 610 nanometers.
Percent inhibition is calculated as follows: […]
A 2 mM DMSO stock solution of the selected trisubstituted benzoimidazole and benzotriazole derivatives of formula (I) of the present invention to be examined was prepared. Subsequent ⅓rd dilutions were made.
5 μL of each stock of compound of formula (I) was used for each 100 μL assay. Therefore, 5 μL of the 2 mM stock provided 100 μL of 100 μM solution of compound of formula (I), when made up with buffer, protein and substrate. See also: Ulrich et al. (2001) Eur. J. Biochem.268, 1861-1868.

GDM-1 = experiment: Heme line growth assay (Cell-Titer Glo), 4-day and extended 7-day; format: cell-based, human
Description: (§1) A follow-up screen was performed on an expanded panel of cell lines of heme lineage in a 4-day growth assay. Growth was assessed by Cell-Titer Glo measurements on day 0 and day 4.
(§2) Compound 1, of which diffuse large B cell lymphoma (DLBCL) lines were particularly sensitive (8/11 or 73%). A subset of the heme lines that were of intermediate sensitivity (defined as >50% and <75% growth rate inhibition) or insensitive (defined as <50% growth rate inhibition) to compound 1 in this follow-up screen were subjected to extended growth assays to evaluate if increased treatment time modulated their sensitivity profile. Specifically, these heme lines were pretreated with Compound 1 for three days at the indicated concentrations and then re-plated for a standard 4-day growth assay in fresh media/drug.

Kasumi-3 = experiment: as above; format: cell-based, human
Description: as §1, §2

Kasumi-6 = experiment: as above; format: cell-based, human
Description: as §1, §2

SKNO-1 = experiment: as above; format: cell-based, human
Description: as §1, §2

[1] = tested on: cell lines of heme lineage; experiment: Follow-up screen on expanded panel of cell lines of heme lineage, 4-day growth assay; format: cell-based, human
Description: as §1, §2

MOLM-13 tumors = experiment: MOLM-13 acute myeloid leukemia xenograft model; format: in vivo
Description: In vivo efficacy studies with Compound 1 were performed to assess the in vitro to in vivo translation of effects on blockade of DHODH and tumor cell growth inhibition. 1×10^6 MOLM-13 cells were implanted subcutaneously into CB17 SCID mice. Mice (n=15/group) were treated with vehicle or Compound 1 at 100 mg/kg BID PO once tumors reached an average of ˜150 mm^3. At end of the study, tissues were collected at the indicated timepoints post-last dose for pharmacokinetic (PK) and pathway biomarker analyses.

AML_2 tumor = experiment: Patient-derived AML xenograft model AML_2; format: in vivo, CB17 SCID mice; settings: 100 mg/kg BID PO
Description: (§3) A screen was next performed using a small number of mice/group to assess efficacy of Compound 1 in AML and DLBCL patient-derived xenograft models. Tumor-bearing mice (n=3/group) were treated with vehicle or Compound 1 at 100 mg/kg BID PO.

AML_5 tumor = experiment: Patient-derived AML xenograft model AML_5; format: in vivo, CB17 SCID mice; settings: AML 5 patient-derived xenograft, 100 mg/kg BID PO
Description: as §3

OCILY-19 tumors = experiment: OCILY-19 diffuse large B-cell lymphoma xenograft model; format: in vivo, CB17 SCID mice
Description: 7×10^6 OCILY-19 cells were implanted subcutaneously into CB17 SCID mice. Mice (n=15-18/group) were treated with vehicle or Compound 1 at the indicated dose/frequency once tumors reached an average of ˜150 mm^3. Tissues were collected at the indicated timepoints post-last dose for PK and biomarker analyses.

DU4475 = experiment: Triple negative breast cancer cell line panel, 96 hours; format: cell-based, human; settings: DU4475, 96 hours
Description: FIG. 10 is a curve showing the relative growth rate of the DU4475 triple negative breast cancer line treated with various concentrations of Compound 1 for 96 hours.
(§4) A panel of triple negative cancer cell lines (TNBC) were screened to evaluate whether a subset of TNBC could potentially benefit from treatment with compound 1 as a single agent.

BTS49 = experiment: as above; format: cell-based, human; settings: BTS49, 96 hours
From the text: as §4

HCC1143 = experiment: as above; format: cell-based, human; settings: HCC1143, 96 hours
From the text: as §4

HCC1806 = experiment: as above; format: cell-based, human; settings: HCC1806, 96 hours
From the text: as §4

HCC38 = experiment: as above; format: cell-based, human; settings: HCC38, 96 hours
From the text: as §4

Sequence of DHODH (Q02127 whole entry): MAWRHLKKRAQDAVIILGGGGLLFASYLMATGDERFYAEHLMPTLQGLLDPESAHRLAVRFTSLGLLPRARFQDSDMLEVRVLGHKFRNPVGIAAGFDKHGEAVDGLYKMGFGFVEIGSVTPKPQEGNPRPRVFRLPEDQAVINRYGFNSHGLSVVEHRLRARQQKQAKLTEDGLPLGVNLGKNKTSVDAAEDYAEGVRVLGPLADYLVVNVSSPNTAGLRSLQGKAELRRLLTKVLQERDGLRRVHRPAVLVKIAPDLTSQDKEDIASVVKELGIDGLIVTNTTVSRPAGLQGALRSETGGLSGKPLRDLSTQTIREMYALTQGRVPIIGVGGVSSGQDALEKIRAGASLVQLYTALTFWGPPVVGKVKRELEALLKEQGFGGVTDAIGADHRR

## Cc1ccccc1-c1ccc(-c2cc(C(=O)O)c3c(c2)nnn3C)cc1 [Compound 1, 1-methyl-5-(2′-methyl-[1,1′-biphenyl]-4-yl)-1H-benzo[d][1,2,3]triazole-7-carboxylic Acid]
DHODH
  IC50: < 100 nM
GDM-1; GDM-1, 3 days pretreatment then 4-day growth assay
  Sensitivity 7-day: ** (intermediate)
GDM-1; GDM-1, acute myeloid leukemia, 4-day growth assay
  Sensitivity 4-day: * (insensitive)
Kasumi-3; Kasumi-3, 3 days pretreatment then 4-day growth assay
  Sensitivity 7-day: * (insensitive)
Kasumi-3; Kasumi-3, acute myeloid leukemia, 4-day growth assay
  Sensitivity 4-day: * (insensitive)
Kasumi-6; Kasumi-6, 3 days pretreatment then 4-day growth assay
  Sensitivity 7-day: * (insensitive)
Kasumi-6; Kasumi-6, acute myeloid leukemia, 4-day growth assay
  Sensitivity 4-day: * (insensitive)
SKNO-1; SKNO-1, 3 days pretreatment then 4-day growth assay
  Sensitivity 7-day: ** (intermediate)
SKNO-1; SKNO-1, acute myeloid leukemia, 4-day growth assay
  Sensitivity 4-day: * (insensitive)
[1]; 8/11 lines
  Share of diffuse large B cell lymphoma (DLBCL) lines that were sensitive: 73%
[1]; 20/80 lines
  Share of the heme lines screened that exhibited sensitivity: 25%
MOLM-13 tumors; 100 mg/kg BID PO, CB17 SCID mice
  Tolerability: well tolerated
MOLM-13 tumors; 100 mg/kg BID PO, MOLM-13 xenograft, 14 days
  Tumor growth inhibition (TGI): near complete tumor growth inhibition
MOLM-13 tumors; 100 mg/kg BID, MOLM-13 tumors, depending on the timepoint
  Reduction of tumor uridine pools: ~60%
MOLM-13 tumors; 100 mg/kg BID, MOLM-13 tumors, over 12 hrs after last dose, baseline BQL<120 ng/g
  Tumor levels of dihydroorotate (DHO): dramatic increase
MOLM-13 tumors; 100 mg/kg BID, after last dose
  Pharmacokinetics profile in plasma and tumor: drop in drug concentrations by 12 hrs
AML_2 tumor
  TGI: > 60%
AML_5 tumor
  TGI: > 60%
OCILY-19 tumors; 100 mg/kg BID compared to 10 and 30 mg/kg BID
  Efficacy of dosing regimen: superior efficacy
OCILY-19 tumors; 100 mg/kg BID versus 10 and 30 mg/kg BID, OCILY-19 tumors
  Tumor DHO: larger increase
OCILY-19 tumors; 100 mg/kg BID, OCILY-19 tumors
  Total tumor uridine pools: decrease
OCILY-19 tumors; 200 mg/kg QD compared to 100 mg/kg BID
  Efficacy of dosing regimen: less efficacious
OCILY-19 tumors; OCILY-19 DLBCL xenograft, CB17 SCID mice
  In vivo tumor growth: strong block in in vivo tumor growth
OCILY-19 tumors; mice
  Half-life in mice: short half-life
DU4475
  Cell viability/growth: robustly impaired cell viability/growth
BTS49
  Sensitivity: insensitive
HCC1143
  Sensitivity: insensitive
HCC1806
  Sensitivity: insensitive
HCC38
  Sensitivity: insensitive
